Measured values: article PMC10985113, “Exploring bi-carbazole-linked triazoles as inhibitors of prolyl endo peptidase via integrated in vitro and in silico study” (Scientific Reports, 2024)

Experiments:
[1] = system: human fibroblast BJ cell line; experiment: Cytotoxicity evaluation (MTT) on BJ cell line; type: cell-based; details: BJ cells; for Cytotoxicity effect / % Inhibition ± SEM (µM): 60 µM; for % Inhibition of cell viability (60 µM) / inhibition at 60 µM / % Inhibition ± SEM (µM): 48 h; for inhibition at 60 µM: Homo sapiens, read-out: % Inhibition ± SEM; for inhibition at 60 µM / % Inhibition ± SEM (µM): mean of three
Experimental: To investigate the cytotoxic effect of these compounds we proceeded all the active compounds 3–9 for their in-vitro study by using BJ cell line. Here we designed our experiment with a specific count of the cells with 6 × 10^4 cells/well were employed into the plate. In each well we added 100 µL followed by 24 h incubation at specific temperature 37 °C in 5% CO2. After that, the 96-well plate was incubated with 50 µL/well (60 µM) of the tested compounds along with 150 µL/well fresh media for 48 h at the similar specific experimental conditions. After 2nd time of incubation, the old media was replaced with 200 µL yellow MTT dye in each well according to 1:10 ratio with the media followed by 4-h incubation. In the next step the dye was removed completely and DMSO (Dimethyl sulfoxide) cell culture grade 100 µL/well was employed into the 96-well plate to dissolve the produced formazan crystals of MTT dye converted into purple. At the end of experiment the obtained changes in the (OD) optical density was monitored at 540 by using spectrophotometer.

prolyl endo peptidase = experiment: Kinetic studies (Lineweaver-Burk, Dixon plots) on PEP; type: biochemical; details: for Ki: substrate Z-Gly-Pro-pNA 0.2-0.5 mM
Experimental: Secondary replot of Line weaver-Burk plot between the slopes of each line on-Line weaver-Burk plot versus different concentrations of compounds 7, 8 (B, E). Dixon plot of reciprocal of rate of reaction (velocities) versus different concentrations of compounds 7, 8 (C, F).
In kinetic study PEP (0.02 U/200 L) was incubated with a range of inhibitor different concentrations for 10 min at 30 °C. The substrate was often utilized at doses between 0.2 and 0.5 mM. The substrate solutions (Z-Gly-Pro-pNA) were added at four different concentrations (0.2, 0.3, 0.4, and 0.5 mM), starting with the lowest concentration and working up to the highest concentration, to begin the catalytic reaction. Using a 96-well plate reader, the catalytic activity of PEP was measured at 410 nm (SpectraMax-384, Molecular Devices, CA, USA).

prolyl endopeptidase = prolyl endopeptidase (Elizabethkingia meningoseptica, UniProt P27028); experiment: In vitro prolyl endopeptidase inhibitory assay (spectrophotometric, Z-Gly-Pro-4-nitroanilide substrate); type: biochemical; details: triplicate, ± SEM; read-out: (IC50 ± µM) in vitro prolyl endo peptidase inhibitory activity
Experimental: Prolyl endopeptidase inhibitory activity was measured using a slightly modified version of Yoshimoto et al. spectrophotometric technique. In a 96-well plate, 140 µL of sodium phosphate buffer (50 mM, pH 7.0), 20 µL of the test substance (0.5 mM in methanol), and 20 µL of prolyl endopeptidase solution (0.02 U/well) were added to provide a total reaction volume of […]. Blank contained 20 µL methanol, instead of the test compound, while Z-prolyl-prolinal (0.5 mM) was used as the positive control. After the reaction mixture had been incubated at 30 °C for 10 min. Now 20 µL of the substrate solution, Z-Gly-Pro-4-nitroanilide (0.4 mM in 1,4-dioxane), was added, and a 96-well plate reader was used to continually monitor the change in absorbance at 410 nm for 30 min (SpectraMax-384, Molecular Devices, CA, USA). The reaction mixture's ultimate methanol and 1,4-dioxane concentrations were 10% v/v. In 96-well microplates, each reaction was carried out in triplicate.
The current study's experiments were all carried out in triplicate, and the data were presented as the standard error of the mean (SEM). Using the statistical software EZ-FIT enzyme kinetics, the IC50 values were determined (Perrella Scientific, Inc., Amherst, NH 03031, USA). […] (1) and (2).1 %Inhibition=100-O.Dtestcompound/O.Dcontrol×100 2 SE=σ/n

prolyl endopeptidase, sequence (P27028 21-705): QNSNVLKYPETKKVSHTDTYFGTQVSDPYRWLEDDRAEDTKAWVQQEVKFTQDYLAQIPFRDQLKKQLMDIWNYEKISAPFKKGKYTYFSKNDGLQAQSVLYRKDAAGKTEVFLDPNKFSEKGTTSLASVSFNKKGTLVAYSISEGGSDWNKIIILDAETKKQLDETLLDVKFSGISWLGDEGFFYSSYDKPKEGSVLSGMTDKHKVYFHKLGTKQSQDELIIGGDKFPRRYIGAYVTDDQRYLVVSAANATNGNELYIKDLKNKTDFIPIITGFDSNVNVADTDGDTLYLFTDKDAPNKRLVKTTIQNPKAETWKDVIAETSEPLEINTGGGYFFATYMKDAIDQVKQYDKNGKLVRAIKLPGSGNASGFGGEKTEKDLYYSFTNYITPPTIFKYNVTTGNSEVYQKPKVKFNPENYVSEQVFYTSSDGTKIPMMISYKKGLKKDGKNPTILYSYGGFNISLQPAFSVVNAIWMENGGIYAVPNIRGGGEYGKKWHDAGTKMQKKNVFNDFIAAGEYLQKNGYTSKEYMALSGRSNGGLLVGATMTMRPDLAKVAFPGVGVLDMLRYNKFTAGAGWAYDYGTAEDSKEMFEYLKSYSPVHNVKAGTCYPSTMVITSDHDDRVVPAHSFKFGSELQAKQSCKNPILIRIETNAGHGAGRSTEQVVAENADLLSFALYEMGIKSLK

Compound	Cytotoxicity effect [1]	% Inhibition of cell viability (60 µM) ([1]; first replicate column) [%]	% Inhibition of cell viability (60 µM) ([1]; second replicate column) [%]	% Inhibition of cell viability (60 µM) ([1]; third replicate column) [%]	inhibition at 60 µM [1] [%]	type (pattern) of inhibition (prolyl endo peptidase)	Ki (prolyl endo peptidase) [µM]	IC50 (prolyl endopeptidase) [µM]	% Inhibition ± SEM (µM) [1] [%]
C=Cn1c2ccccc2c2ccccc21 [Compound 3]	Non-toxic	26.34	22.74	23.95	24.4 ± 1.1				
C=Cn1c2ccccc2c2cc(-c3ccc4c(c3)c3ccccc3n4C=C)ccc21 [Compound 4]	Non-toxic	22.75	21.55	26.34	23.6 ± 1.44				
O=C(Cn1cc(Cn2c3ccccc3c3cc(-c4ccc5c(c4)c4ccccc4n5Cc4cn(CC(=O)c5ccccc5)nn4)ccc32)nn1)c1ccccc1 [Compound 5]	Non-toxic	25.14	22.74	20.35	22.8 ± 1.38				
Cc1ccc(C(=O)Cn2cc(Cn3c4ccccc4c4cc(-c5ccc6c(c5)c5ccccc5n6Cc5cn(CC(=O)c6ccc(C)cc6)nn5)ccc43)nn2)cc1 [Compound 6]	Non-toxic	21.55	20.35	23.95	21.9 ± 1.05				
O=C(Cn1cc(Cn2c3ccccc3c3cc(-c4ccc5c(c4)c4ccccc4n5Cc4cn(CC(=O)c5ccc(Cl)cc5)nn4)ccc32)nn1)c1ccc(Cl)cc1 [Compound 7]	Non-toxic	20.35	26.34	25.14		mixed	24.1 ± 0.0076	26.3 ± 0.76	23.95 ± 1.83
O=C(Cn1cc(Cn2c3ccccc3c3cc(-c4ccc5c(c4)c4ccccc4n5Cc4cn(CC(=O)c5ccc(Br)cc5)nn4)ccc32)nn1)c1ccc(Br)cc1 [Compound 8]	Non-toxic	19.52	25.14	25.14		mixed	23.67 ± 0.0084	28.3 ± 0.64	23.27 ± 1.87
COc1ccc(C(=O)Cn2cc(Cn3c4ccccc4c4cc(-c5ccc6c(c5)c5ccccc5n6Cc5cn(CC(=O)c6ccc(OC)cc6)nn5)ccc43)nn2)cc1 [Compound 9]	Non-toxic	16.75	21.55	19.16				31.1 ± 0.84	19.16 ± 1.38
Bacitracin [reference compound]								125 ± 1.5	
